This is an account of results in patent publication US8933094B2, “Ethynyl compounds useful for treatment of CNS disorder” (Hoffmann-La Roche Inc., priority 2009, dated 2015).

For this test, the target named is T1, human mGlu5a receptor (Homo sapiens, UniProt P41594).
T1 construct: expressed in transfected cells
The experiment in a line: Intracellular Ca2+ mobilization assay (mGlu5 PAM). It counts as cell-based. The following applies: for EC50: HEK-293 cells stably transfected with human mGlu5a, L-glutamate added at EC20 after 10-30 min pre-incubation with test compound, read-out: EC50 (nM) mGlu5PAM; for Emax: maximal response in % of the maximal stimulatory effect obtained with saturating concentrations of L-glutamate, read-out: Eff. (%). The method, then: A monoclonal HEK-293 cell line stably transfected with a cDNA encoding for the human mGlu5a receptor was generated; for the work with mGlu5 Positive Allosteric Modulators (PAMs), a cell line with low receptor expression levels and low constitutive receptor activity was selected to allow the differentiation of agonistic versus PAM activity. Cells were cultured according to standard protocols (Freshney, 2000) in Dulbecco's Modified Eagle Medium with high glucose supplemented with 1 mM glutamine, 10% (vol/vol) heat-inactivated bovine calf serum, Penicillin/Streptomycin, 50 μg/ml hygromycin and 15 μg/ml blasticidin (all cell culture reagents and antibiotics from Invitrogen, Basel, Switzerland).
About 24 hrs before an experiment, 5×10^4 cells/well were seeded in poly-D-lysine coated, black/clear-bottomed 96-well plates. The cells were loaded with 2.5 μM Fluo-4AM in loading buffer (1×HBSS, 20 mM HEPES) for 1 hr at 37° C. and washed five times with loading buffer. The cells were transferred into a Functional Drug Screening System 7000 (Hamamatsu, Paris, France), and 11 half logarithmic serial dilutions of test compound at 37° C. were added and the cells were incubated for 10-30 min. with on-line recording of fluorescence. Following this pre-incubation step, the agonist L-glutamate was added to the cells at a concentration corresponding to EC20 (typically around 80 μM) with on-line recording of fluorescence; in order to account for day-to-day variations in the responsiveness of cells, the EC20 of glutamate was determined immediately ahead of each experiment by recording of a full dose-response curve of glutamate.
Responses were measured as peak increase in fluorescence minus basal (i.e. fluorescence without addition of L-glutamate), normalized to the maximal stimulatory effect obtained with saturating concentrations of L-glutamate. Graphs were plotted with the % maximal stimulatory using XLfit, a curve fitting program that iteratively plots the data using Levenburg Marquardt algorithm. The single site competition analysis equation used was y=A+((B−A)/(1+((x/C)D))), where y is the % maximal stimulatory effect, A is the minimum y, B is the maximum y, C is the EC50, x is the log 10 of the concentration of the competing compound and D is the slope of the curve (the Hill Coefficient). From these curves the EC50 (concentration at which half maximal stimulation was achieved), the Hill coefficient as well as the maximal response in % of the maximal stimulatory effect obtained with saturating concentrations of L-glutamate were calculated.
A depression of the signal observed after addition of the EC20 concentration of L-glutamate was indicative of an inhibitory activity of the test compound.
In general terms: Calcium assays in cells follow changes in intracellular calcium, usually with a dye or a luminescent sensor.

T1 sequence (P41594 21-1180 isoform P41594-2 limits assumed): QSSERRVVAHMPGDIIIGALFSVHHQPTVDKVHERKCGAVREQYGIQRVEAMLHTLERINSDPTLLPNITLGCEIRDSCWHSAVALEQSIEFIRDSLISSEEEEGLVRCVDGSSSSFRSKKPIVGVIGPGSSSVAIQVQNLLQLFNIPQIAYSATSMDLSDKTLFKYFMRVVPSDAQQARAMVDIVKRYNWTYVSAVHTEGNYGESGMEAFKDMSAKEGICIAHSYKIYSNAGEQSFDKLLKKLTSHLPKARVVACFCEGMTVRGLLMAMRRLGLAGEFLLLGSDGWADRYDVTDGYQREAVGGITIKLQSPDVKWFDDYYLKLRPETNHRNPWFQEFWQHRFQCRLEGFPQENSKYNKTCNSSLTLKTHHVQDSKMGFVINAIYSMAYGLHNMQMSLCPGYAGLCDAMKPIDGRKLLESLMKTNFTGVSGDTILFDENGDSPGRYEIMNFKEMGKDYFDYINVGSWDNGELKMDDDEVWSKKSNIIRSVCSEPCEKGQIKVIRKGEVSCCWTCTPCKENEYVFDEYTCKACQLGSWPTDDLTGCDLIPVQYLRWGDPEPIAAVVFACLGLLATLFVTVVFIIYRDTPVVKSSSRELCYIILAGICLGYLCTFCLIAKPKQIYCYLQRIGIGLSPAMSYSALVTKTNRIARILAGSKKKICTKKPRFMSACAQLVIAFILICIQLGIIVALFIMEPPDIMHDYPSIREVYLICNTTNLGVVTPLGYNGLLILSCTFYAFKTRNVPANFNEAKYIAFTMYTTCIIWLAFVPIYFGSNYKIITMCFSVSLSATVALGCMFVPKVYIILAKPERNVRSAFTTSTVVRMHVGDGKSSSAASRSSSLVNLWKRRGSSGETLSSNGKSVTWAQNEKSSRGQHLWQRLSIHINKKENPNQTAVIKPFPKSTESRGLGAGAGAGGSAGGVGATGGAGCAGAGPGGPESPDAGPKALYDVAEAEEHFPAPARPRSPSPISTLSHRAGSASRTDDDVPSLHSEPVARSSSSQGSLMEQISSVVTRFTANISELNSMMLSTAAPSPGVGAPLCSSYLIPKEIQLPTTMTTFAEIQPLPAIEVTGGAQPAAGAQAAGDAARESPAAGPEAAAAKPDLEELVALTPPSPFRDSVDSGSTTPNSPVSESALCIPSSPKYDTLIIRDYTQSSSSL

Regarding `C(#Cc1cnc2ccnn2c1)c1ccccc1` [Example 1, 6-Phenylethynyl-pyrazolo[1,5-a]pyrimidine], the EC50 (in general, the concentration needed to bring the measured effect to its halfway point) was determined as 70 nM and the Emax came out at 116%.
For the compound `Cc1cc2ncc(C#Cc3ccccc3)cn2n1` [Example 2, 2-Methyl-6-phenylethynyl-pyrazolo[1,5-a]pyrimidine], the EC50 was found to be 49 nM and the Emax was 99%.
For `Cc1cc2ncc(C#Cc3ccccc3F)cn2n1` [Example 3, 6-(2-Fluoro-phenylethynyl)-2-methyl-pyrazolo[1,5-a]pyrimidine], in that order: 47 nM and 81%.
With `Cc1cc2ncc(C#Cc3cccc(F)c3)cn2n1` [Example 4, 6-(3-Fluoro-phenylethynyl)-2-methyl-pyrazolo[1,5-a]pyrimidine], the concentration for a half-maximal effect (EC50) was 42 nM and the Emax came to 77%.
Regarding `Cc1cc2ncc(C#Cc3ccc(F)cc3)cn2n1` [Example 5, 6-(4-Fluoro-phenylethynyl)-2-methyl-pyrazolo[1,5-a]pyrimidine], the EC50 came to 78 nM and the Emax was 74%.
On to `Cc1cc2ncc(C#Cc3ccncc3)cn2n1` [Example 6, 2-Methyl-6-pyridin-4-ylethynyl-pyrazolo[1,5-a]pyrimidine], for which the 50% effective concentration (EC50) turned out to be 498 nM and the Emax came out at 82%.
Taken in the same sequence, the figures for `Cc1ccc(C#Cc2cnc3cc(C)nn3c2)cc1` [Example 7, 2-Methyl-6-p-tolylethynyl-pyrazolo[1,5-a]pyrimidine] were 132 nM and 73%.
Taken in the same sequence, the figures for `Cc1cc2ncc(C#Cc3ccc(Cl)cc3)cn2n1` [Example 8, 6-(4-Chloro-phenylethynyl)-2-methyl-pyrazolo[1,5-a]pyrimidine] were 148 nM and 69%.
As to `CC(C)(C)c1cc2ncc(C#Cc3ccccc3)cn2n1` [Example 9, 2-tert-Butyl-6-phenylethynyl-pyrazolo[1,5-a]pyrimidine], the EC50 came to 5 nM and the Emax is 75%.
Taken in the same sequence, the figures for `CC(C)(C)c1cc2ncc(C#Cc3ccccc3F)cn2n1` [Example 10, 2-tert-Butyl-6-(2-fluoro-phenylethynyl)-pyrazolo[1,5-a]pyrimidine] were 19 nM and 80%.
For `CC(C)(C)c1cc2ncc(C#Cc3cccc(F)c3)cn2n1` [Example 11, 2-tert-Butyl-6-(3-fluoro-phenylethynyl)-pyrazolo[1,5-a]pyrimidine], in that order: 5 nM and 86%.
Turning to `CC(C)(C)c1cc2ncc(C#Cc3ccc(F)cc3)cn2n1` [Example 12, 2-tert-Butyl-6-(4-fluoro-phenylethynyl)-pyrazolo[1,5-a]pyrimidine], the concentration giving a half-maximal response (EC50) turned out to be 7 nM and the Emax was 75%.
Taken in the same sequence, the figures for `CC(C)(C)c1cc2ncc(C#Cc3cccnc3)cn2n1` [Example 13, 2-tert-Butyl-6-pyridin-3-ylethynyl-pyrazolo[1,5-a]pyrimidine] were 33 nM and 88%.
For `CC(C)(C)c1cc2ncc(C#Cc3ccncc3)cn2n1` [Example 14, 2-tert-Butyl-6-pyridin-4-ylethynyl-pyrazolo[1,5-a]pyrimidine], in that order: 4 nM and 37%.
On to `COc1ccc(C#Cc2cnc3cc(C(C)(C)C)nn3c2)cc1` [Example 15, 2-tert-Butyl-6-(4-methoxy-phenylethynyl)-pyrazolo[1,5-a]pyrimidine], for which the half-maximal effective concentration (EC50) amounted to 68 nM and the Emax was 53%.
With `Cc1cccc(C#Cc2cnc3cc(C(C)(C)C)nn3c2)c1` [Example 16, 2-tert-Butyl-6-m-tolylethynyl-pyrazolo[1,5-a]pyrimidine], the 50% effective concentration (EC50) was 100 nM and the Emax was 50%.
For `COc1cccc(C#Cc2cnc3cc(C(C)(C)C)nn3c2)c1` [Example 17, 2-tert-Butyl-6-(3-methoxy-phenylethynyl)-pyrazolo[1,5-a]pyrimidine], in that order: 104 nM and 41%.
For `C(#Cc1cnc2cc(C3CCC3)nn2c1)c1ccccc1` [Example 18, 2-Cyclobutyl-6-phenylethynyl-pyrazolo[1,5-a]pyrimidine], in that order: 182 nM and 102%.
Taken in the same sequence, the figures for `Cc1ccc(C#Cc2cnc3cc(C(C)(C)C)nn3c2)cc1` [Example 19, 2-tert-Butyl-6-p-tolylethynyl-pyrazolo[1,5-a]pyrimidine] were 100 nM and 68%.
For `CC(C)(C)c1cc2ncc(C#Cc3ccc(Cl)cc3)cn2n1` [Example 20, 2-tert-Butyl-6-(4-chloro-phenylethynyl)-pyrazolo[1,5-a]pyrimidine], the EC50 was found to be 400 nM and the Emax came to 89%.
In the case of `CC(C)(C)c1cc2ncc(C#Cc3ccc(Cl)nc3)cn2n1` [Example 21, 2-tert-Butyl-6-(6-chloro-pyridin-3-ylethynyl)-pyrazolo[1,5-a]pyrimidine], the EC50 stood at 183 nM and the Emax was 77%.
Take `CC(C)(C)c1cc2ncc(C#Cc3ccc(N)nc3)cn2n1` [Example 22, 5-(2-tert-Butyl-pyrazolo[1,5-a]pyrimidin-6-ylethynyl)-pyridin-2-ylamine]: the EC50 was 255 nM and the Emax worked out at 98%.
Turning to `CC(C)(C)c1cc2ncc(C#Cc3cncc(Cl)c3)cn2n1` [Example 23, 2-tert-Butyl-6-(5-chloro-pyridin-3-ylethynyl)-pyrazolo[1,5-a]pyrimidine], the EC50 is 34 nM and the Emax was found to be 59%.
For `CC(C)(C)c1cc2ncc(C#Cc3cncnc3)cn2n1` [Example 24, 2-tert-Butyl-6-pyrimidin-5-ylethynyl-pyrazolo[1,5-a]pyrimidine], the EC50 worked out at 181 nM and the Emax is 68%.
In the case of `CC(C)(C)c1cc2ncc(C#Cc3ccc(F)c(F)c3)cn2n1` [Example 25, 2-tert-Butyl-6-(3,4-difluoro-phenylethynyl)-pyrazolo[1,5-a]pyrimidine], the EC50 amounted to 45 nM and the Emax came to 93%.
For `C(#Cc1cnc2cc(C3CCOCC3)nn2c1)c1ccccc1` [Example 26, 6-Phenylethynyl-2-(tetrahydro-pyran-4-yl)-pyrazolo[1,5-a]pyrimidine], in that order: 472 nM and 124%.
On to `CC(C)(C)c1cc2ncc(C#Cc3ccc(N)cc3)cn2n1` [Example 27, 4-(2-tert-Butyl-pyrazolo[1,5-a]pyrimidin-6-ylethynyl)-phenylamine], for which the EC50 is 41 nM and the Emax was found to be 99%.
For `CC(C)(O)c1cc2ncc(C#Cc3ccccc3)cn2n1` [Example 28, 2-(6-Phenylethynyl-pyrazolo[1,5-a]pyrimidin-2-yl)-propan-2-ol], in that order: 152 nM and 59%.
For the compound `CC(C)(C)c1cc2ncc(C#Cc3cncc(F)c3)cn2n1` [Example 29, 2-tert-Butyl-6-(5-fluoro-pyridin-3-ylethynyl)-pyrazolo[1,5-a]pyrimidine], the EC50 worked out at 161 nM and the Emax came to 61%.
For the compound `N#Cc1cnn2cc(C#Cc3ccccc3)cnc12` [Example 30, 6-Phenylethynyl-pyrazolo[1,5-a]pyrimidine-3-carbonitrile], the 50% effective concentration (EC50) worked out at 310 nM and the Emax was 63%.
On to `C(#Cc1ccc2ncnn2c1)c1ccccc1` [Example 31, 6-Phenylethynyl-[1,2,4]triazolo[1,5-a]pyridine], for which the EC50 is 274 nM and the Emax is 123%.
Taken in the same sequence, the figures for `C(#Cc1cnc2ncnn2c1)c1ccccc1` [Example 32, 6-Phenylethynyl-[1,2,4]triazolo[1,5-a]pyrimidine] were 210 nM and 100%.
Regarding `C(#Cc1ccc2ccnn2c1)c1ccccc1` [Example 33, 6-Phenylethynyl-pyrazolo[1,5-a]pyridine], the EC50 was 136 nM and the Emax came out at 88%.
Take `C(#Cc1ccc2cnnn2c1)c1ccccc1` [Example 34, 6-Phenylethynyl-[1,2,3]triazolo[1,5-a]pyridine]: the EC50 worked out at 50 nM and the Emax turned out to be 77%.
Taken in the same sequence, the figures for `CC(C)(C)c1cc2ncc(C#Cc3cccc(N)c3)cn2n1` [Example 35, 3-(2-tert-Butyl-pyrazolo[1,5-a]pyrimidin-6-ylethynyl)-phenylamine] were 37 nM and 69%.
